Test results reported in the NIST ThermoML archive (doi:10.1016/j.fluid.2017.06.022).
± gives the expanded uncertainty stated by the source.

Assay: xn = mol fraction of the nth substance listed
Settings: Liquid, Bellows volumetry

C=CC [propene] + Cc1ccccc1
Settings	mass density [kg/m3]
422.8 K, 6300 kPa, x1 = 0.7612	383 ± 9.4
422.8 K, 6800 kPa, x1 = 0.7612	392.4 ± 9.6
422.8 K, 7500 kPa, x1 = 0.7612	405.5 ± 10
422.8 K, 8900 kPa, x1 = 0.7612	424.5 ± 10
422.8 K, 10600 kPa, x1 = 0.7612	441.8 ± 11
422.8 K, 15400 kPa, x1 = 0.7612	476.7 ± 12
422.8 K, 17400 kPa, x1 = 0.7612	484.1 ± 12
422.8 K, 24400 kPa, x1 = 0.7612	508.8 ± 12
422.8 K, 31000 kPa, x1 = 0.7612	527.4 ± 13
422.8 K, 37800 kPa, x1 = 0.7612	543.1 ± 13
422.8 K, 44900 kPa, x1 = 0.7612	556.7 ± 13
422.8 K, 51600 kPa, x1 = 0.7612	566.8 ± 14
422.8 K, 58200 kPa, x1 = 0.7612	576.2 ± 14
422.8 K, 63200 kPa, x1 = 0.7612	583.4 ± 14
422.8 K, 67200 kPa, x1 = 0.7612	588.5 ± 14
424 K, 4500 kPa, x1 = 0.53	514 ± 12
424 K, 4800 kPa, x1 = 0.53	516.1 ± 12
424 K, 5300 kPa, x1 = 0.53	519 ± 12
424 K, 5900 kPa, x1 = 0.53	522.7 ± 13
424 K, 7100 kPa, x1 = 0.53	529 ± 13
424 K, 8700 kPa, x1 = 0.53	535.9 ± 13
424 K, 10400 kPa, x1 = 0.53	543 ± 13
424 K, 17000 kPa, x1 = 0.53	563.7 ± 14
424 K, 24000 kPa, x1 = 0.53	581.4 ± 14
424 K, 30500 kPa, x1 = 0.53	594.5 ± 14
425.2 K, 1300 kPa, x1 = 0.1159	668.8 ± 16
425.2 K, 1600 kPa, x1 = 0.1159	669.7 ± 16
425.2 K, 2200 kPa, x1 = 0.1159	671 ± 16
425.2 K, 3200 kPa, x1 = 0.1159	673.2 ± 16
425.2 K, 5400 kPa, x1 = 0.1159	678.2 ± 16
425.2 K, 7000 kPa, x1 = 0.1159	681.3 ± 16
425.2 K, 10300 kPa, x1 = 0.1159	688.2 ± 16
425.2 K, 17100 kPa, x1 = 0.1159	700.5 ± 17
425.2 K, 24000 kPa, x1 = 0.1159	712.3 ± 17
425.2 K, 30700 kPa, x1 = 0.1159	721.9 ± 17
425.2 K, 37600 kPa, x1 = 0.1159	730.7 ± 18
425.2 K, 44700 kPa, x1 = 0.1159	738.6 ± 18
425.2 K, 51400 kPa, x1 = 0.1159	745.7 ± 18
425.2 K, 58400 kPa, x1 = 0.1159	752.3 ± 18
425.2 K, 63100 kPa, x1 = 0.1159	756.7 ± 18
425.2 K, 67000 kPa, x1 = 0.1159	760.1 ± 18
474.3 K, 2200 kPa, x1 = 0.1159	604.5 ± 14
474.3 K, 2900 kPa, x1 = 0.1159	607.4 ± 15
474.3 K, 3700 kPa, x1 = 0.1159	610.3 ± 15
474.3 K, 5300 kPa, x1 = 0.1159	616.2 ± 15
474.3 K, 7200 kPa, x1 = 0.1159	622.2 ± 15
474.3 K, 10500 kPa, x1 = 0.1159	632.3 ± 15
474.3 K, 13900 kPa, x1 = 0.1159	641.4 ± 15
474.3 K, 17400 kPa, x1 = 0.1159	650.5 ± 16
474.3 K, 20400 kPa, x1 = 0.1159	657.2 ± 16
474.3 K, 23700 kPa, x1 = 0.1159	664.4 ± 16
474.3 K, 31100 kPa, x1 = 0.1159	678.2 ± 16
474.3 K, 37400 kPa, x1 = 0.1159	688.7 ± 16
474.3 K, 38000 kPa, x1 = 0.1159	689.6 ± 17
474.3 K, 44800 kPa, x1 = 0.1159	700.1 ± 17
474.3 K, 51300 kPa, x1 = 0.1159	708.8 ± 17
474.4 K, 6700 kPa, x1 = 0.53	412.3 ± 10
474.4 K, 7200 kPa, x1 = 0.53	423.9 ± 10
474.4 K, 8100 kPa, x1 = 0.53	437.9 ± 11
474.4 K, 9200 kPa, x1 = 0.53	450.2 ± 11
474.4 K, 10700 kPa, x1 = 0.53	464.3 ± 11
474.4 K, 13800 kPa, x1 = 0.53	487.2 ± 12
474.4 K, 18000 kPa, x1 = 0.53	509 ± 12
474.4 K, 23800 kPa, x1 = 0.53	531.7 ± 13
474.4 K, 31300 kPa, x1 = 0.53	551.8 ± 13
474.4 K, 37900 kPa, x1 = 0.53	566.1 ± 14
474.4 K, 44400 kPa, x1 = 0.53	579 ± 14
474.4 K, 51500 kPa, x1 = 0.53	591.3 ± 14
474.4 K, 58400 kPa, x1 = 0.53	602.1 ± 14
474.4 K, 63100 kPa, x1 = 0.53	608.9 ± 15
474.4 K, 67200 kPa, x1 = 0.53	614.2 ± 15
474.8 K, 7900 kPa, x1 = 0.7612	213.2 ± 5.9
474.8 K, 8500 kPa, x1 = 0.7612	232.7 ± 6.2
474.8 K, 9100 kPa, x1 = 0.7612	257.3 ± 6.7
474.8 K, 9800 kPa, x1 = 0.7612	279.8 ± 7
474.8 K, 10600 kPa, x1 = 0.7612	304.4 ± 7.6
474.8 K, 11700 kPa, x1 = 0.7612	333.8 ± 8.3
474.8 K, 12100 kPa, x1 = 0.7612	337.7 ± 8.3
474.8 K, 14600 kPa, x1 = 0.7612	374.6 ± 9.1
474.8 K, 17400 kPa, x1 = 0.7612	402.7 ± 9.8
474.8 K, 24200 kPa, x1 = 0.7612	442.3 ± 11
474.8 K, 31800 kPa, x1 = 0.7612	475 ± 11
474.8 K, 37900 kPa, x1 = 0.7612	493.8 ± 12
474.8 K, 44600 kPa, x1 = 0.7612	511.3 ± 12
474.8 K, 51500 kPa, x1 = 0.7612	527.1 ± 13
474.8 K, 58300 kPa, x1 = 0.7612	540 ± 13
474.8 K, 63100 kPa, x1 = 0.7612	547.8 ± 13
474.8 K, 67300 kPa, x1 = 0.7612	553.9 ± 13
505.4 K, 7200 kPa, x1 = 0.53	291.1 ± 7.8
505.4 K, 7700 kPa, x1 = 0.53	316.5 ± 8.1
505.4 K, 8000 kPa, x1 = 0.53	328 ± 8.4
505.4 K, 8700 kPa, x1 = 0.53	355.4 ± 8.8
505.4 K, 9500 kPa, x1 = 0.53	376.8 ± 9
505.4 K, 10600 kPa, x1 = 0.53	396.8 ± 9.7
505.4 K, 13800 kPa, x1 = 0.53	435.7 ± 11
505.4 K, 17400 kPa, x1 = 0.53	462.3 ± 11
505.4 K, 24200 kPa, x1 = 0.53	495.4 ± 12
505.4 K, 31500 kPa, x1 = 0.53	523.8 ± 13
505.4 K, 37900 kPa, x1 = 0.53	540.2 ± 13
505.4 K, 44600 kPa, x1 = 0.53	554.8 ± 13
505.4 K, 51400 kPa, x1 = 0.53	568 ± 14
505.4 K, 58400 kPa, x1 = 0.53	579.6 ± 14
505.4 K, 62900 kPa, x1 = 0.53	587.4 ± 14
505.4 K, 66800 kPa, x1 = 0.53	592.6 ± 14
554.4 K, 4700 kPa, x1 = 0.1159	442.2 ± 11
554.4 K, 5300 kPa, x1 = 0.1159	460 ± 11
554.4 K, 6000 kPa, x1 = 0.1159	475.7 ± 12
554.4 K, 6600 kPa, x1 = 0.1159	486 ± 12
554.4 K, 7200 kPa, x1 = 0.1159	493.7 ± 12
554.4 K, 9400 kPa, x1 = 0.1159	515.7 ± 12
554.4 K, 10800 kPa, x1 = 0.1159	526.4 ± 13
554.4 K, 17800 kPa, x1 = 0.1159	567.8 ± 14
554.4 K, 24100 kPa, x1 = 0.1159	591.2 ± 14
554.4 K, 30900 kPa, x1 = 0.1159	610.7 ± 15
554.4 K, 37900 kPa, x1 = 0.1159	626.5 ± 15
554.4 K, 44500 kPa, x1 = 0.1159	640.2 ± 15
554.4 K, 51800 kPa, x1 = 0.1159	653 ± 16
554.4 K, 58200 kPa, x1 = 0.1159	663.6 ± 16
554.4 K, 63300 kPa, x1 = 0.1159	671.5 ± 16
554.4 K, 67100 kPa, x1 = 0.1159	676.8 ± 16
